# Experiments:
# Aspergillus brasiliensis = test: Single-species biofilm (microfouling) growth inhibition, crystal violet biomass; type: cell-based; settings: 24 hours, untreated control 1.1
# Experimental: (§1) Fresh stock solution of lactam was prepared at 20 mM in DMSO. Lactam stock was then serially diluted in tissue culture plates in 100% ethanol first ten-fold and subsequently to the desired concentrations. Plates were then left to dry overnight in a fume hood.
# (§2) Single species plates were inoculated with each 1×10^6 bacteria/Aspergillus in marine broth and left for 24 hours. Multispecies plates were inoculated with 1×10^5 S. algae, V. anguillarium V. alginolyticus and 1×10^6 C. marina, A. brasiliensis, P. atlantica, C. lytica in marine broth and left for 24 hours, 48 and 72 hours. Plates were washed twice and left overnight to dry. Crystal violet (0.05% w/v) was added for 20 minutes and destained using 100% ethanol. Biomass was measured by optical density (OD) at 570 nm.
# (§3) In this experiment, the plates were treated with lactam at levels of 0.0312 mM to 2 mM as well as an untreated control. The specific levels of lactam measured were of 0.0312 mM, of 0.0625 mM, of 0.125 mM, of 0.25 mM, of 0.5 mM, 1 mM, and 2 mM. This would equate to levels of from ˜6 ppm ([…]) to 400 ppm (2 mM), and to wt. % of 0.0006 wt. % ([…]) to 0.04 wt. % (2 mM). The lactam was provided in a DMSO/ethanol solvent to the plates. The plate was then inoculated with the marine organism or mixture thereof. The rate of growth of the culture was measured after 24 hours days by optical density.
# Cellulophaga lytica = test: as above; type: cell-based; settings: 24 hours; for Optical Density (570 nm): untreated control 0.7; for lactam concentration with biofilm growth inhibition effect: Cellulophaga lytica
# Experimental: as §1, §2, §3
# Vibrio anguillarium = test: as above; type: cell-based; settings: 24 hours, untreated control 0.5
# Experimental: as §1, §2, §3
# [1] = test system: mixture of the 7 marine organisms (Pseudoalteromonas atlantica, Cellulophaga lytica, Shewanella algae, Cobetia marina, Vibrio anguillarium, Vibrio …); test: Multispecies biofilm (microfouling) growth inhibition, crystal violet biomass; type: cell-based, mixture of 7 marine organisms; settings: for lactam concentration that inhibited biofilm growth: 7 marine organism mixture, 24, 48 and 72 hr
# Experimental: as §2, with “Fresh stock solution of lactam was prepared at 20 mM in DMSO. Lactam stock was then serially diluted in tissue culture plates in 100% ethanol first ten-fold and subsequently to the desired concentrations. Plates were then left to dry overnight in a fume hood. Single” for “Single”
# The marine species were as used for example 2: Shewanella algae, Cobetia marina, Vibrio alginolyticus, or Pseudoalteromonas atlantica, Aspergillus brasiliensis, Vibrio anguillarium, and Cellulophaga lytica. This time they were used in combination as a mixture to better model the marine environment, and the growth inhibition effect of the lactams on the challenging marine organism mixture was tested. This a challenging test as the presence of marine organisms where the lactam didn't have a growth inhibition effect would be expected to lead to biofilm growth. The results are shown in FIGS. 4 and 5 and Tables 2 and 3.
# [2] = 0.0312 mM lactam, 24 hr, untreated control 1.3
# [3] = 0.0312 mM lactam, 48 hr, untreated control 1.8
# [4] = 0.0312 mM lactam, 72 hr, untreated control 1.1
# [5] = 0.0625 mM lactam, 24 hr, untreated control 1.3
# [6] = 0.0625 mM lactam, 48 hr, untreated control 1.8
# [7] = 0.0625 mM lactam, 72 hr, untreated control 1.1
# [8] = 0.125 mM lactam, 24 hr, untreated control 1.3
# [9] = 0.125 mM lactam, 48 hr, untreated control 1.8
# [10] = 0.125 mM lactam, 72 hr, untreated control 1.1
# [11] = 0.25 mM lactam, 24 hr, untreated control 1.3
# [12] = 0.25 mM lactam, 48 hr, untreated control 1.8
# [13] = 0.25 mM lactam, 72 hr, untreated control 1.1
# [14] = 0.5 mM lactam, 24 hr, untreated control 1.3
# [15] = 0.5 mM lactam, 48 hr, untreated control 1.8
# [16] = 0.5 mM lactam, 72 hr, untreated control 1.1
# [17] = 1 mM lactam, 24 hr, untreated control 1.3
# [18] = 1 mM lactam, 48 hr, untreated control 1.8
# [19] = 1 mM lactam, 72 hr, untreated control 1.1
# [20] = 2 mM lactam, 24 hr, untreated control 1.3
# [21] = 2 mM lactam, 48 hr, untreated control 1.8
# [22] = 2 mM lactam, 72 hr, untreated control 1.1
smiles,measurement,setting,value
"C=C1NC(=O)C=C1c1ccc(C)cc1 [lactam 491, 5-methylene-4-(p-tolyl)pyrrol-2-one]",Optical Density (570 nm),Aspergillus brasiliensis; 0.0312 mM lactam,0.4
same,Optical Density (570 nm),Aspergillus brasiliensis; 0.0625 mM lactam,0.5
same,Optical Density (570 nm),Aspergillus brasiliensis; 0.125 mM lactam,0.5
same,Optical Density (570 nm),Aspergillus brasiliensis; 0.25 mM lactam,0.5
same,Optical Density (570 nm),Aspergillus brasiliensis; 0.5 mM lactam,0.5
same,Optical Density (570 nm),Aspergillus brasiliensis; 1 mM lactam,0.3
same,Optical Density (570 nm),Aspergillus brasiliensis; 2 mM lactam,0.4
same,Optical Density (570 nm),Cellulophaga lytica; 0.0312 mM lactam,0.9
same,Optical Density (570 nm),Cellulophaga lytica; 0.0625 mM lactam,1.0
same,Optical Density (570 nm),Cellulophaga lytica; 0.125 mM lactam,0.9
same,Optical Density (570 nm),Cellulophaga lytica; 0.25 mM lactam,0.9
same,Optical Density (570 nm),Cellulophaga lytica; 0.5 mM lactam,1.0
same,Optical Density (570 nm),Cellulophaga lytica; 1 mM lactam,0.5
same,Optical Density (570 nm),Cellulophaga lytica; 2 mM lactam,0.6
same,lactam concentration with biofilm growth inhibition effect,Cellulophaga lytica,> 1 mM
same,Optical Density (570 nm),Vibrio anguillarium; 0.0312 mM lactam,0.2
same,Optical Density (570 nm),Vibrio anguillarium; 0.0625 mM lactam,0.7
same,Optical Density (570 nm),Vibrio anguillarium; 0.125 mM lactam,0.7
same,Optical Density (570 nm),Vibrio anguillarium; 0.25 mM lactam,0.3
same,Optical Density (570 nm),Vibrio anguillarium; 0.5 mM lactam,0.4
same,Optical Density (570 nm),Vibrio anguillarium; 1 mM lactam,0.2
same,Optical Density (570 nm),Vibrio anguillarium; 2 mM lactam,0.1
same,Optical Density (570 nm),[1]; [2],1.2
same,Optical Density (570 nm),[1]; [3],1.7
same,Optical Density (570 nm),[1]; [4],1.3
same,Optical Density (570 nm),[1]; [5],1.1
same,Optical Density (570 nm),[1]; [6],1.8
same,Optical Density (570 nm),[1]; [7],1.2
same,Optical Density (570 nm),[1]; [8],0.9
same,Optical Density (570 nm),[1]; [9],1.6
same,Optical Density (570 nm),[1]; [10],1.0
same,Optical Density (570 nm),[1]; [11],0.9
same,Optical Density (570 nm),[1]; [12],1.4
same,Optical Density (570 nm),[1]; [13],0.9
same,Optical Density (570 nm),[1]; [14],1.0
same,Optical Density (570 nm),[1]; [15],1.2
same,Optical Density (570 nm),[1]; [16],0.9
same,Optical Density (570 nm),[1]; [17],0.7
same,Optical Density (570 nm),[1]; [18],1.3
same,Optical Density (570 nm),[1]; [19],1.2
same,Optical Density (570 nm),[1]; [20],0.2
same,Optical Density (570 nm),[1]; [21],0.2
same,Optical Density (570 nm),[1]; [22],0.3
same,lactam concentration that inhibited biofilm growth,[1],> 0.25 mM
"C=C1NC(=O)C=C1c1ccc(Cl)cc1 [lactam 488, 4-(4-chlorophenyl)-5-methylene-pyrrol-2-one]",Optical Density (570 nm),Aspergillus brasiliensis; 0.0312 mM lactam,0.5
same,Optical Density (570 nm),Aspergillus brasiliensis; 0.0625 mM lactam,0.6
same,Optical Density (570 nm),Aspergillus brasiliensis; 0.125 mM lactam,0.5
same,Optical Density (570 nm),Aspergillus brasiliensis; 0.25 mM lactam,0.4
same,Optical Density (570 nm),Aspergillus brasiliensis; 0.5 mM lactam,0.6
same,Optical Density (570 nm),Aspergillus brasiliensis; 1 mM lactam,0.5
same,Optical Density (570 nm),Aspergillus brasiliensis; 2 mM lactam,0.4
same,Optical Density (570 nm),Cellulophaga lytica; 0.0312 mM lactam,0.9
same,Optical Density (570 nm),Cellulophaga lytica; 0.0625 mM lactam,0.9
same,Optical Density (570 nm),Cellulophaga lytica; 0.125 mM lactam,0.8
same,Optical Density (570 nm),Cellulophaga lytica; 0.25 mM lactam,0.8
same,Optical Density (570 nm),Cellulophaga lytica; 0.5 mM lactam,0.2
same,Optical Density (570 nm),Cellulophaga lytica; 1 mM lactam,0.2
same,Optical Density (570 nm),Cellulophaga lytica; 2 mM lactam,0.1
same,lactam concentration with biofilm growth inhibition effect,Cellulophaga lytica,> 0.5 mM
same,Optical Density (570 nm),Vibrio anguillarium; 0.0312 mM lactam,0.5
same,Optical Density (570 nm),Vibrio anguillarium; 0.0625 mM lactam,0.6
same,Optical Density (570 nm),Vibrio anguillarium; 0.125 mM lactam,0.7
same,Optical Density (570 nm),Vibrio anguillarium; 0.25 mM lactam,0.6
same,Optical Density (570 nm),Vibrio anguillarium; 0.5 mM lactam,0.2
same,Optical Density (570 nm),Vibrio anguillarium; 1 mM lactam,0.1
same,Optical Density (570 nm),Vibrio anguillarium; 2 mM lactam,0.1
same,Optical Density (570 nm),[1]; [2],1.3
same,Optical Density (570 nm),[1]; [3],1.5
same,Optical Density (570 nm),[1]; [4],1.4
same,Optical Density (570 nm),[1]; [5],1.4
same,Optical Density (570 nm),[1]; [6],1.8
same,Optical Density (570 nm),[1]; [7],1.4
same,Optical Density (570 nm),[1]; [8],1.2
same,Optical Density (570 nm),[1]; [9],1.7
same,Optical Density (570 nm),[1]; [10],1.2
same,Optical Density (570 nm),[1]; [11],1
same,Optical Density (570 nm),[1]; [12],1.3
same,Optical Density (570 nm),[1]; [13],1.0
same,Optical Density (570 nm),[1]; [14],0.6
same,Optical Density (570 nm),[1]; [15],0.6
same,Optical Density (570 nm),[1]; [16],0.4
same,Optical Density (570 nm),[1]; [17],0.3
same,Optical Density (570 nm),[1]; [18],0.2
same,Optical Density (570 nm),[1]; [19],0.1
same,Optical Density (570 nm),[1]; [20],0.1
same,Optical Density (570 nm),[1]; [21],0.1
same,Optical Density (570 nm),[1]; [22],0.1
same,lactam concentration that inhibited biofilm growth,[1],> 0.25 mM

# Source: US12180388B2, “Method of treatment of a surface” (Conopco, Inc., priority 2018, dated 2024)
